# Like-named read-outs stand apart in the source and are kept apart here. Non-standard residues stand in square brackets, D forms with d. Residues, ends and D or L forms follow the SMILES beside them. 2Nal = N[C@@H](Cc1ccc2ccccc2c1)C(=O)O; d2Nal = N[C@H](Cc1ccc2ccccc2c1)C(=O)O
# Experiments:
# [1] = test system: Staphylococcus aureus ATCC 33592 (MRSA) biofilm
# Description: (§1) Bacteria. The bacterial strains employed in these assays were obtained from the American Type Culture Collection (ATCC). Each strain was propagated as recommended by the ATCC and each strain was stored as a frozen glycerol stock at −80° C.
# (§2) Bacterial Propagation. […] Following the incubation, the culture was diluted to an optical density 625 nm (OD625) of 0.1 in cation adjusted Mueller Hinton Broth (CAMHB), which is equivalent to 1×10^8 CFU/mL. The culture was further diluted to 1×10^6 CFU/mL which was used for the assay.
# (§3) Determination of the Temporal Effects of SPL7013 Addition to Inhibit Biofilm Formation. Each strain of bacteria was adjusted to a concentration of 1×10^6 CFU/mL and added to a 96-well flat-bottomed plate in a volume of 100 mL. One-hundred microliters (100 mL) of each compound at 10 concentrations was added in triplicate wells. The cultures were incubated for 24 hours at 37° C. under the appropriate growth conditions for each organism. Following the incubation, the media was removed, and the formed biofilms were fixed for 1 hour at 60° C. Two-hundred microliters (200 mL) of 0.06% crystal violet was added to the wells for 5 to 10 minutes and the wells were then gently washed three times with deionized H2O to remove the crystal violet. Following crystal violet staining 200 mL of 70% ethanol was added to the wells.
# [2] = test system: Methicillin-resistant Staphylococcus aureus MRSA (ATCC BAA-1556)
# [3] = test system: Clostridium difficile (NAP1/027); test: MIC determination, broth microdilution (CLSI); assay type: cell-based
# [4] = test system: Pseudomonas aeruginosa (ATCC 27883)
# [5] = test system: P. aeruginosa strain ATCC 47085 biofilm
# Description: as §1, §2, §3
# human red blood cells = test system: human red blood cells; design: unit not given beside the values
# [6] = test system: Escherichia coli (ATCC 25922)
# [7] = test system: Clostridium difficile (ATCC 700057); test: MIC determination, broth microdilution (CLSI); assay type: cell-based
# MRSA [8] = test: In vivo Galleria Mellonella Assay (MRSA infection); details: MRSA-infected G. mellonella, after one week
# [9] = test system: Escherichia coli (E. Coli, ATCC 25922); test: microbe, parasite or virus in culture; details: ATCC25922, 24 h, read-out: Escherichia coli (ATCC 25922) MIC, Table 31, [R5W4] (IFX-301), antibiotics alone and PHY-MIX (1:1 w/w)
# [10] = test system: Escherichia coli (E. Coli, ATCC 25922); details: for MIC of antibiotic: Escherichia coli (ATCC 25922), antibiotic alone
# MRSA (ATCC BAA-1556) = details: for MIC of antibiotic: MRSA (ATCC BAA-1556), antibiotic alone
# [11] = test system: Pseudomonas aeruginosa (PSA, ATCC 27883); test: microbe, parasite or virus in culture; details: ATCC27883, 24 h
# [12] = test system: Methicillin-resistant Staphylococcus aureus MRSA (ATCC BAA-1556); test: microbe, parasite or virus in culture; details: ATCCBAA1556|MRSA, 24 h, read-out: MRSA (ATCC BAA-1556) MIC, Table 31, [R5W4] (IFX-301), antibiotics alone and PHY-MIX (1:1 w/w)
# [13] = test system: Pseudomonas aeruginosa (PSA, ATCC 27883); test: Synergy checkerboard assay (FIC index); assay type: cell-based; details: Pseudomonas aeruginosa (ATCC 27883)
# PSA = details: Table 36; P. aeruginosa ATCC 27883
# [14] = test system: Bacillus cereus (ATCC-13061)
# [15] = test system: Escherichia coli (ATCC BAA-2452); details: Table 36; Escherichia coli (ATCC BAA-2452)
# [16] = test system: P. aeruginosa (ATCC 10145); test: Broad-spectrum activity against Gram-Negative bacteria (MIC); assay type: cell-based; details: Table 16, Gram-negative panel
# [17] = test system: P. aeruginosa (ATCC BAA-1744); test: as above; assay type: cell-based; details: Table 16, Gram-negative panel
# [18] = test system: Streptococcus pneumoniae ATCC 49619
# [19] = test system: Enterococcus faecalis ATCC 29212
# MRSA [20] = test system: MRSA
# [21] = test system: Pseudomonas aeruginosa (ATCC 10145); details: Table 36; Pseudomonas aeruginosa (ATCC 10145)
# [22] = test system: Klebsiella pneumoniae (ATCC BAA-1705); details: Table 16, Gram-negative panel
# [23] = test system: Pseudomonas aeruginosa (ATCC BAA-1744); details: Table 36; Pseudomonas aeruginosa (ATCC BAA-1744)
# [24] = test system: Acinetobacter baumannii (ATCC BAA-1605); details: Table 36; Acinetobacter baumannii (ATCC BAA-1605)
# KPC = details: Table 36; Klebsiella pneumoniae (ATCC BAA-1705)
# B. subtilis (ATCC-6633) = test: Broad-spectrum activity against Gram-Positive bacteria (MIC); assay type: cell-based; design: unit not given here
# [25] = test system: Bacillus subtilis (ATCC-6633)
# [26] = test system: Klebsiella pneumoniae ATCC 13883
# [27] = test system: Staphylococcus aureus ATCC 29213
# [28] = test system: Enterococcus faecium ATCC 700221
# E. coli (ATCC BAA-2452) = test: Broad-spectrum activity against Gram-Negative bacteria (MIC); assay type: cell-based; details: Table 16, Gram-negative panel
# [29] = test system: Klebsiella pneumoniae (KPC, ATCC BAA-1705); details: ATCC BAA-1705
# [30] = test system: Enterococcus faecalis ATCC 51575
# B. cereus (ATCC-13061) = test: Broad-spectrum activity against Gram-Positive bacteria (MIC); assay type: cell-based; design: unit not given here
# [31] = test system: Enterococcus faecium ATCC 27270
# E. coli = details: Table 36; E. coli ATCC 25922
# [32] = test system: Streptococcus pneumoniae ATCC 51938
# [33] = test system: A. baumannii (ATCC BAA-1605); test: Broad-spectrum activity against Gram-Negative bacteria (MIC); assay type: cell-based; details: Table 16, Gram-negative panel
# in vitro = details: human, fresh human red blood cells (washed), pH 7.4
# [34] = test system: K. pneumoniae strain ATCC BAA-2470 biofilm
# Description: as §1, §2, §3
molecule,measurement,setting,value
"N=C(N)NCCC[C@H](NC(=O)[C@H](CCCNC(=N)N)NC(=O)[C@H](CCCNC(=N)N)NC(=O)[C@@H](N)CCCNC(=N)N)C(=O)N[C@@H](Cc1ccc2ccccc2c1)C(=O)N[C@@H](Cc1ccc2ccccc2c1)C(=O)N[C@@H](Cc1c[nH]c2ccccc12)C(=O)O [IFX-031-1, NH2-R-R-R-R-NaI-NaI-Trp-OH] (H-RRRR[2Nal][2Nal]W-OH)",ability to prevent biofilm formation,[1],able to inhibit biofilm formation
same,MIC MRSA ATCC BAA-1556,[2]; ATCC BAA-1556,6.2 µg/mL
same,MIC90,[3],25 µg/mL
same,MIC95,[3],> 50 µg/mL
same,MIC99,[3],25 µg/mL
same,MIC S. aureus ATCC 29213,S. aureus ATCC 29213; ATCC 29213,6.2 µg/mL
same,MIC P. aeruginosa ATCC 27883,[4]; ATCC 27883,25 µg/mL
same,ability to prevent biofilm formation,[5],able to inhibit biofilm formation
same,HC50,human red blood cells,450
same,MIC E. coli ATCC 25922,[6]; ATCC 25922,25 µg/mL
same,MIC90,[7],25 µg/mL
same,MIC95,[7],25 µg/mL
same,MIC99,[7],25 µg/mL
"CN(C)[C@@H]1C(O)=C(C(N)=O)C(=O)[C@@]2(O)C(O)=C3C(=O)c4c(O)cccc4[C@@](C)(O)[C@H]3C[C@@H]12 [tetracycline, reference compound]",larvae killed,MRSA [8],56.3%
same,MIC,[9],8 µg/mL
same,MIC of antibiotic,[10],8 µg/mL
same,MIC of antibiotic,[10]; Table 25,8 µg/mL
same,MIC of antibiotic,[10]; Table 26,8 µg/mL
same,MIC of antibiotic,MRSA (ATCC BAA-1556),0.25 µg/mL
same,MIC of antibiotic,MRSA (ATCC BAA-1556); Table 25,0.250 µg/mL
same,MIC,"[11]; read-out: Pseudomonas aeruginosa (ATCC 27883) MIC, Table 29, [R6W4] (IFX-318), antibiotics alone and PHY-MIX (1:1 w/w)",32 µg/mL
same,MIC,"[11]; read-out: Pseudomonas aeruginosa (ATCC 27883) MIC, Table 31, [R5W4] (IFX-301), antibiotics alone and PHY-MIX (1:1 w/w)",32 µg/mL
same,MIC,[12],0.25 µg/mL
same,MIC of antibiotic,[13]; antibiotic alone,32 µg/mL
same,MIC of antibiotic,"[13]; Table 26, antibiotic alone",32 µg/mL
same,antibiotic MIC,"[13]; Table 27, antibiotic alone",32 µg/mL
c[Arg-Arg-arg-arg-naI-Trp-naI] [IFX-135],MIC,PSA,32 µg/mL
same,MIC,[14],8 µg/mL
same,MIC,[15],16 µg/mL
same,MIC P. aeruginosa (ATCC 10145),[16],25 µg/mL
same,MIC P. aeruginosa (ATCC BAA-1744),[17],12.5 µg/mL
same,MIC MRSA ATCC BAA-1556,[2]; MRSA ATCC BAA-1556,1.5 µg/mL
same,MIC,[18]; ATCC 49619,16 µg/mL
same,Broad-spectrum activity S. pneumoniae (ATCC 49619),[18]; S. pneumoniae ATCC 49619,12.5
same,MIC S. aureus ATCC 29213,S. aureus ATCC 29213; S. aureus ATCC 29213,1.5 µg/mL
same,MIC,[19]; ATCC 29212,8 µg/mL
same,Broad-spectrum activity E. faecalis (ATCC 29212),[19]; E. faecalis ATCC 29212,6.2
same,MIC,MRSA [20],2 µg/mL
same,MIC,[21],32 µg/mL
same,IFX135 MIC,[10]; ATCC 25922,8 µg/mL
same,MIC K. pneumonia (ATCC BAA-1705),[22],12.5 µg/mL
same,MIC,[23],16 µg/mL
same,MIC,[24],16 µg/mL
same,IFX135 MIC,MRSA (ATCC BAA-1556); ATCC BAA-1556,2 µg/mL
same,MIC,KPC,16 µg/mL
same,MIC P. aeruginosa ATCC 27883,[4]; P. aeruginosa ATCC 27883,32 µg/mL
same,Broad-spectrum activity B. subtilis (ATCC-6633),B. subtilis (ATCC-6633),1.5
same,MIC,[25],2 µg/mL
same,MIC K. pneumonia (ATCC 13883),"[26]; Table 16, Gram-negative panel",50 µg/mL
same,MIC,"[26]; Table 36, Klebsiella pneumonia (ATCC 13883)",64 µg/mL
same,MIC,[27],2 µg/mL
same,MIC,[28]; ATCC 700221,4 µg/mL
same,Broad-spectrum activity E. faecium (ATCC 700221),[28]; E. faecium ATCC 700221,3.1
same,MIC E. coli (ATCC BAA-2452),E. coli (ATCC BAA-2452),12.5 µg/mL
same,IFX135 MIC,"[13]; Table 27, peptide alone",32 µg/mL
same,IFX135 MIC,[29],16 µg/mL
same,MIC,[30]; ATCC 51575,16 µg/mL
same,Broad-spectrum activity E. faecalis (ATCC 51575),[30]; E. faecalis ATCC 51575,12.5
same,Broad-spectrum activity B. cereus (ATCC-13061),B. cereus (ATCC-13061),6.2
same,MIC,[31]; ATCC 27270,4 µg/mL
same,Broad-spectrum activity E. faecium (ATCC 27270),[31]; E. faecium ATCC 27270,3.1
same,MIC,E. coli,8 µg/mL
same,MIC E. coli ATCC 25922,[6]; E. coli ATCC 25922,8 µg/mL
same,MIC,[32]; ATCC 51938,16 µg/mL
same,Broad-spectrum activity S. pneumoniae (ATCC 51938),[32]; S. pneumoniae ATCC 51938,12.5
same,MIC A. baumannii (ATCC BAA-1605),[33],12.5 µg/mL
"N=C(N)NCCC[C@@H]1NC(=O)[C@@H](CCCNC(=N)N)NC(=O)[C@H](CCCNC(=N)N)NC(=O)[C@@H](Cc2ccc3ccccc3c2)NC(=O)[C@@H](Cc2ccc3ccccc3c2)NC(=O)[C@H](Cc2c[nH]c3ccccc23)NC(=O)[C@@H](CCCNC(=N)N)NC1=O [IFX-111, c[Arg-arg-Arg-arg-Trp-naI-naI]] (cyclo(R[dR]R[dR]W[d2Nal][d2Nal]))",MIC MRSA ATCC BAA-1556,[2]; ATCC BAA-1556,1.5 µg/mL
same,MIC S. aureus ATCC 29213,S. aureus ATCC 29213; ATCC 29213,1.5 µg/mL
same,MIC P. aeruginosa ATCC 27883,[4]; P. aeruginosa ATCC 27883,12.5 µg/mL
same,MIC E. coli ATCC 25922,[6]; ATCC 25922,6.2 µg/mL
same,HC50 at 0.5 h,in vitro,205 µg/mL
same,inhibition of biofilm formation,[34]; ATCC BAA-2470,≤ 23%
"CN(C)c1cc(NC(=O)CNC(C)(C)C)c(O)c2c1C[C@H]1C[C@H]3[C@H](N(C)C)C(O)=C(C(N)=O)C(=O)[C@@]3(O)C(O)=C1C2=O [Tigecycline, reference compound]",change of biofilm formation,"[34]; K. pneumoniae, two of the lowest concentrations, 0.2 mg/mL and 0.1 mg/mL",increase in biofilm formation

# From patent publication US20220289794A1, “SYNTHETIC ANTIMICROBIAL PEPTIDES” (priority 2019, published 2022)
